Source: paper PMC8284440, “Toward New Transmission-Blocking Combination Therapies: Pharmacokinetics of 10-Amino-Artemisinins and 11-Aza-Artemisinin and Comparison with Dihydroartemisinin and Artemether” (Antimicrobial Agents and Chemotherapy, 2021)
In brackets after ≈: the same amount, converted by molar mass. Several values for one entry are separate records, joined by “and”; a condition that tells them apart may be missing. Equal entries are not always repeated. Where two headings read alike, the source gives them in different places.

Assays:
[1] = tested on: liver stage P. berghei ANKA GFP-Luc-SMcon sporozoites; set-up: method as in ref 2 (supplement; main text 48); conditions: ref 2 (supplement; main text 48), cited from earlier work; for IC50: 48 h, ± SD
P. falciparum K1 [2] = tested on: P. falciparum K1; set-up: method as in ref 1 and 2 (supplement; main text 47, 48); conditions: Table S1, ± SEM; ref 1 and 2 (supplement; main text 47, 48); cited from earlier work
HepG2 = conditions: read-out: Cytotoxicity EC50 HepG2; ref 2 (supplement; main text 48); cited from earlier work
[3] = cited from earlier work
[4] = Pharmacokinetics in mice, intravenous administration; type: in vivo, male C57/BL6 mice; conditions: for AUC: 0 h to last, parent; for V: volume of distribution during elimination phase; for half-life / CLint scaled / clearance: male; for half-life: C57/BL6, iv, mouse plasma; for CLint scaled / clearance: C57/BL6, mouse, plasma, iv; for clearance: read-out: CLtot; for DHA detected as a metabolite: mouse PK studies, i.v. and p.o., LC-MS/MS
Procedure: (i) Animals. Healthy male C57/BL6 mice each weighing approximately 25 g were used. The mice maintained at the University of Cape Town animal facility were housed in 27 by 21 by 18 cm cages, under controlled environmental conditions at 22 ± 2°C and a 12-h light/dark cycle. Humidity was monitored and ranged between 55 and 70%. Food and water were available ad libitum. Mice were acclimatized to their environment for 7 days before experiments were initiated.
(iii) Intravenous drug administration. For the intravenous formulations, each of artemether, the amino-artemisinins 5 to 10, and 11-aza-artemisinin 11 (2.5 mg) was dissolved in 1 ml DMSO/PEG/PPG (1:3:6, vol/vol). DMSO was added first, followed by PEG and then PPG. The resulting solutions in the mixture of DMSO, PEG, and PPG (1:3:6, vol/vol) were administered intravenously at a dose of 10 mg/kg (n = 3) via injection into the dorsal penile vein. Mice were anesthetized with an intraperitoneal injection of a saline ketamine/xylazine solution. This consisted of 1 ml ketamine (100 mg/ml), 0.5 ml xylazine (20 mg/ml), and 8.5 ml PBS solution to make a total volume of 10 ml. Dosage of anesthetic preparation for mice was […]; this amounts to a dose of 80 mg/kg ketamine and 10 mg/kg xylazine. The total volume of administration was dose adjusted to 10 mg/kg with an approximate volume of 80 μl, according to the weight of each animal on the morning of dosing. Blood samples for the amino-artemisinins 5 to 8 and 10 were collected via tail-bleeding predose and at 0.08, 0.25, 0.5, 1, 2, and 4 h, and blood samples for the phenylurea 9 and 11-aza-artemisinin 11 were collected at 0.08, 0.5, 1, 2, 4, 8, and 24 h postdose. Samples were all placed in 0.5 ml lithium heparin microvials to prevent blood coagulation. The samples were immediately centrifuged at 5,590 × g for 5 min and the plasma was transferred to new microvials. The plasma samples were stored at −80°C.
Sample extraction. […] The organic layer was then transferred and evaporated under a gentle stream of nitrogen at room temperature for 30 min. The dried samples were reconstituted in mobile phase, and a 5 μl sample was injected for LC-MS/MS analysis. The only exception was the arylurea 10, for which no liquid-liquid extraction was conducted; instead, the 200 μl acetonitrile solution was evaporated under a gentle stream of nitrogen at room temperature. The dried sample was reconstituted in the mobile phase, and a 5 μl sample was injected for LC-MS/MS analysis. The plasma samples for each compound from the in vivo studies were extracted by mixing 350 μl ethyl acetate with 15 μl of plasma sample and 35 μl of universal buffer containing internal standard at pH 8. The samples were vortexed for 1 min and centrifuged for 5 min, and the organic layer was then transferred and evaporated under a gentle stream of nitrogen at room temperature for 30 min. The dried samples were each reconstituted in the mobile phase, and a 5 μl sample was injected for LC-MS/MS analysis.
LC-MS/MS analysis. For all the artemisinins except the arylurea 10, gradient chromatography was performed on a Phenomenex (Torrance, CA, USA) Luna PFP(2) analytical column (100 Å, 5 μm, 2 by 50 mm) and an AB Sciex API 5500 mass spectrometer which was operated at unit resolution in the multiple reaction monitoring (MRM) mode. The HPLC method used was a gradient method with 5 mM ammonium acetate and 0.1% acetic acid in water as the aqueous phase and a mixture of acetonitrile and methanol (1:1 vol/vol) containing 5% of the aqueous phase as the organic phase ([89]). The arylurea 10 was analyzed using a Phenomenex Gemini NX-C18 (5 μm, 2.1 mm by 50 mm) column with an AB Sciex 3200 QTRAP mass spectrometer operated at unit resolution in the MRM mode. The HPLC method used was a gradient method with 5 mM ammonium acetate and 0.1% acetic acid in water as the aqueous phase and a mixture of acetonitrile and methanol (1:1 vol/vol).

[5] = tested on: Chinese hamster ovary (CHO) cells; conditions: read-out: Cytotoxicity EC50 CHO; MTT, ±SD; ref 1 and 2 (supplement; main text 47, 48); cited from earlier work
P. falciparum NF54 = tested on: P. falciparum NF54; set-up: method as in ref 1 and 2 (supplement; main text 47, 48); conditions: Table S1, ± SEM; ref 1 and 2 (supplement; main text 47, 48); cited from earlier work
P. falciparum TM93-C1088 = tested on: P. falciparum TM93-C1088; set-up: method as in ref 5 (supplement; main text 63); conditions: atovaquone and CQ resistant; ref 5 (supplement; main text 63); read-out: Antimalarial activities IC50 TM93-C1088; cited from earlier work
P. falciparum D6 = tested on: P. falciparum D6; set-up: method as in ref 5 (supplement; main text 63); conditions: CQ sensitive; ref 5 (supplement; main text 63); read-out: Antimalarial activities IC50 D6; cited from earlier work
P. falciparum W2 [6] = tested on: P. falciparum W2; set-up: method as in ref 5 (supplement; main text 63); conditions: CQ resistant; ref 5 (supplement; main text 63); read-out: Antimalarial activities IC50 W2; cited from earlier work
P. falciparum 7G8 = tested on: P. falciparum 7G8; set-up: method as in ref 5 (supplement; main text 63); conditions: CQ resistant; ref 5 (supplement; main text 63); read-out: Antimalarial activities IC50 7G8; cited from earlier work
P. falciparum K1 [7] = tested on: P. falciparum K1; set-up: method as in ref 4 (supplement; main text 62); conditions: Table S2, ± SEM; ref 4 (supplement; main text 62); read-out: Antimalarial activities IC50 K1; cited from earlier work
P. falciparum W2 [8] = tested on: P. falciparum W2; set-up: method as in ref 4 (supplement; main text 62); conditions: Table S2, ± SEM; ref 4 (supplement; main text 62); read-out: Antimalarial activities IC50 W2; cited from earlier work
[9] = 10 mg/kg, i.v. 10 mg/kg, total plasma clearance
[10] = metabolite formed from i.v. artemiside 5, 10 mg/kg

Compound | IC50 [1] [nM] | IC50 (P. falciparum K1 [2]) [nM] | EC50 (HepG2) [nM] | aqueous solubility at pH 7.2 [3] | AUC ([4]; i.v. 10 mg/kg) [min/µmol/L] | V ([4]; i.v. 10 mg/kg) [L/kg] | half-life ([4]; i.v. 10 mg/kg) [h] | CLint scaled ([4]; 10 mg/kg) [mL/min/kg] | clearance [4, 9] [mL/min/kg] | DHA detected as a metabolite [4] | EC50 [5] [nM] | IC50 (P. falciparum NF54) [nM] | Maximum inhibition % ([1]; at 10 µM) [%] | IC50 (P. falciparum TM93-C1088) [nM] | IC50 (P. falciparum D6) [nM] | AUC of metabolite [4, 10] [min/µmol/L] | IC50 (P. falciparum W2 [6]) [nM] | IC50 (P. falciparum 7G8) [nM] | other results
C[C@H]1[C@H](N2CCSCC2)O[C@@H]2O[C@@]3(C)CC[C@H]4[C@H](C)CC[C@@H]1[C@@]24OO3 [Artemiside 5, artemiside] | 81.3 | 1.6 ± 0.4 | > 25000 | < 2 mg/liter and < 5.4 μM | 184.9 ± 43 | 24.3 ± 9.3 | 1.8 ± 0.5 | 674 | 130 | not detected | > 271000 | 1.11 ± 0.17 | – | – | – | – | – | – | Maximum inhibition % ([1]; at 5 µM): 99.05±1.34%; CLtot ([4]; i.v. 10 mg/kg, total plasma clearance, 10 mg/kg): 155.0 ± 46.4 mL/min/kg
C[C@H]1[C@H](N2CCS(=O)(=O)CC2)O[C@@H]2O[C@@]3(C)CC[C@H]4[C@H](C)CC[C@@H]1[C@@]24OO3 [Artemisone 6, artemisone] | 28.3 | 1.01 ± 0.19 | > 50000 | 89 mg/liter and 221.6 μM | 577.5 ± 30 | 1.9 ± 0.1 | 0.5 ± 0.03 | 302 | 42.3 ± 2.1 | not detected | > 249000 | 1.2 ± 0.4 | 93.35±1.76 | 0.7 ± 0.2 | 1 ± 0.4 | 28.9 ± 1 | 1.3 ± 0.5 | 0.8 ± 0.1 | –
CO[C@H]1O[C@@H]2O[C@@]3(C)CC[C@H]4[C@H](C)CC[C@@H]([C@H]1C)[C@@]24OO3 [Artemether 3, artemether] | > 104 | – | – | – | 304.4 ± 80 | 14.1 ± 1.3 | 1.4 ± 0.2 | 855 | 120 ± 39 | – | – | – | 49.4 | – | – | – | – | – | IC50 ([1]; listed as artemether): > 10000 nM; IC50 (P. falciparum K1 [7]): 2.64 ± 0.18 nM; aqueous solubility ([3]; 25°C): 12.1 µg/mL (≈ 40.6 µM); aqueous solubility [3]: 300 µg/mL (≈ 1010 µM); aqueous solubility rating [3]: insoluble; aqueous solubility ([3]; variously recorded): < 1000 µg/mL; IC50 (P. falciparum W2 [8]): 6.7 ± 0.6 nM
C[C@H]1[C@H](N2C=CS(=O)(=O)CC2)O[C@@H]2O[C@@]3(C)CC[C@H]4[C@H](C)CC[C@@H]1[C@@]24OO3 [M1 12] | – | – | – | – | – | – | – | – | – | – | – | – | – | 2.5 ± 0.4 | 4.7 ± 0.2 | 13.8 ± 9 | 6.6 ± 0.4 | 2.6 ± 0.8 | AUC of metabolite ([4]; metabolite formed from i.v. artemisone, 10 mg/kg): 60.6 ± 36 min/µmol/L
